Assay results reported in patent US20260166039A1 (SCHRÖDINGER, INC., priority 2022, published 2026).
pIC50: −log10 of the molar value. Like-named read-outs stand apart in the source and are kept apart here.

Key:
Wee1 kinase domain = biological target: T1, Wee1 kinase domain (Homo sapiens, UniProt P30291); test: Wee1 Kinase Biochemical Assay (ADP-Glo); details: 15 uM ATP
T1 construct: Wee1 kinase domain was purchased from Carna (catalog #05-177); purchased Carna 05-177
How it was run: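 Kinase domain (1 nM) incubated 4 h at 25 °C with 15 uM ATP and 2 ng/mL Poly(Lys,Tyr 4:1) in 40 mM Tris-HCl, 20 mM MgCl2, 0.1 mg/mL BSA, 2 mM DTT. ADP formation read by ADP-Glo luminescence; percent inhibition normalized to DMSO and saturating reference-inhibitor controls.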

[1] = system: phosphorylation of Cdc2 Y15 (Wee1 substrate) in A427 cells; test: Phosphorylated Cdc2 MSD Electrochemiluminescence Assay; assay type: cell-based
How it was run: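 A427 cells (RPMI 1640, 10% FBS) treated 20 h after plating with 3-fold serial compound dilutions, in duplicate, 37 °C, 5% CO2; total incubation 6 h. Lysate Cdc2 pY15 read by MSD electrochemiluminescence sandwich immunoassay; % remaining signal normalised to DMSO (high) and reference Wee1 inhibitor (low) controls.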

[2] = class symbols, 1 nM Wee1 enzyme, 4 hours at 25° C.
[3] = Homo sapiens, A-427, class symbols, read-out: A427 pCDC2 MSD IC50

T1 sequence (P30291 299-569 limits assumed): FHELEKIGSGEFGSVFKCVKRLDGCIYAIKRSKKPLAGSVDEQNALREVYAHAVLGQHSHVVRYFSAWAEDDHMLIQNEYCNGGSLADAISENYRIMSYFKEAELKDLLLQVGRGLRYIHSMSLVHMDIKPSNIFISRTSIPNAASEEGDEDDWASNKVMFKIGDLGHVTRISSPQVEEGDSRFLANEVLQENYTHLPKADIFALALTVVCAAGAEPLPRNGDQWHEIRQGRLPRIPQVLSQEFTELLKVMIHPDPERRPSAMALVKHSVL

pIC50 (Wee1 kinase domain; Wee1 kinase domain, ADP-Glo) | pIC50 ([1]; Homo sapiens, A-427, pCDC2 MSD) | pIC50 ([1]; pCDC2 MSD) | pIC50 (Wee1 kinase domain; [2]) | pIC50 [1, 3] | SMILES
> 8.00 | 6.00 to 7.00 |  |  |  | CC1(C)C[C@H]2N(c3cccc(N=S(C)(C)=O)n3)c3nc(Nc4ccn(C5CC5)c(=O)c4)ncc3[C@@]2(C)CO1 (single isomer, unassigned) [Example 380]
> 8.00 | 6.00 to 7.00 |  |  |  | CNCc1cccc(N2c3nc(Nc4ccn(C5CCOCC5)c(=O)c4)ncc3[C@@]3(C)COC(C)(C)C[C@@H]23)n1 (single isomer, unassigned) [Example 386]
> 8.00 | 5.00 to 6.00 |  |  |  | CN(C)Cc1cccc(N2c3nc(Nc4ccn(C5CCOCC5)c(=O)c4)ncc3[C@@]3(C)COC(C)(C)C[C@@H]23)n1 (single isomer, unassigned) [Example 387]
> 8.00 | 6.00 to 7.00 |  |  |  | CNCc1cccc(N2c3nc(Nc4ccn([C@@H]5CCOC5)c(=O)c4)ncc3[C@@]3(C)COC(C)(C)C[C@@H]23)n1 (single isomer, unassigned) [Example 388]
> 8.00 | 5.00 to 6.00 |  |  |  | CNCc1cccc(N2c3nc(Nc4ccn([C@H]5CCOC5)c(=O)c4)ncc3[C@@]3(C)COC(C)(C)C[C@@H]23)n1 (single isomer, unassigned) [Example 389]
> 8.00 | 6.00 to 7.00 |  |  |  | CN[C@@H](C)c1cccc(N2c3nc(Nc4ccn(C5CCOCC5)c(=O)c4)ncc3[C@@]3(C)COC(C)(C)C[C@@H]23)n1 (single isomer, unassigned) [Example 390]
> 8.00 | 6.00 to 7.00 |  |  |  | CN[C@H](C)c1cccc(N2c3nc(Nc4ccn(C5CCOCC5)c(=O)c4)ncc3[C@@]3(C)COC(C)(C)C[C@@H]23)n1 (single isomer, unassigned) [Example 391]
> 8.00 | 5.00 to 6.00 |  |  |  | CN1CCC[C@H]1c1cccc(N2c3nc(Nc4ccn(C5CCOCC5)c(=O)c4)ncc3[C@@]3(C)COC(C)(C)C[C@@H]23)n1 (single isomer, unassigned) [Example 393]
> 8.00 | 5.00 to 6.00 |  |  |  | CC1(C)C[C@H]2N(c3cccc([C@H]4CCCN4)n3)c3nc(Nc4ccn(C5CCOCC5)c(=O)c4)ncc3[C@@]2(C)CO1 (single isomer, unassigned) [Example 394]
> 8.00 | 6.00 to 7.00 |  |  |  | CN1CCC[C@@H]1c1cccc(N2c3nc(Nc4ccn(C5CCOCC5)c(=O)c4)ncc3[C@@]3(C)COC(C)(C)C[C@@H]23)n1 (single isomer, unassigned) [Example 395]
> 8.00 | 6.00 to 7.00 |  |  |  | CC1(C)C[C@H]2N(c3cccc(N=S(C)(C)=O)n3)c3nc(NC(=O)[C@@H]4C[C@H]4c4ccccc4)ncc3[C@@]2(C)CO1 (single isomer, unassigned) [Example 396]
> 8.00 |  | 6.00 to 7.00 |  |  | CC1(C)C[C@H]2N(c3cccc(N=S(C)(C)=O)n3)c3nc(NC(=O)[C@H]4C[C@@H]4c4ccccc4)ncc3[C@@]2(C)CO1 (single isomer, unassigned) [Example 397]
 |  |  | > 8.00 | 6.00 to 7.00 | CC1(C)C[C@H]2N(c3cccc(N=S(C)(C)=O)n3)c3nc(NC(=O)C4CC4)ncc3[C@@]2(C)CO1 (single isomer, unassigned) [Example 399]
 |  |  | > 8.00 | 6.00 to 7.00 | CC1(C)C[C@H]2N(c3cccc(N=S4(=O)CCCC4)n3)c3nc(NC(=O)C4CC4)ncc3[C@@]2(C)CO1 (single isomer, unassigned) [Example 400]
 |  |  | > 8.00 | 6.00 to 7.00 | CC1(C)C[C@H]2N(c3cccc(N=S(C)(C)=O)n3)c3nc(NC(=O)[C@@H]4C[C@H]4c4cccnc4)ncc3[C@@]2(C)CO1 (single isomer, unassigned) [Example 401]
 |  |  | 7.00 to 8.00 | 5.00 to 6.00 | CC1(C)C[C@H]2N(c3cccc(N=S(C)(C)=O)n3)c3nc(NC(=O)[C@H]4C[C@@H]4c4cccnc4)ncc3[C@@]2(C)CO1 (single isomer, unassigned) [Example 402]
 |  |  | > 8.00 | 6.00 to 7.00 | Cn1cc([C@@H]2C[C@H]2C(=O)Nc2ncc3c(n2)N(c2cccc(N=S(C)(C)=O)n2)[C@@H]2CC(C)(C)OC[C@]32C)cn1 (single isomer, unassigned) [Example 403]
